Assays:
Format in all cases: functional, Homo sapiens
Set-up in all cases: dose or concentration left out as unconfirmed
[1] = tested on: Colon cancer organoid; assay: Identification of compartment-specific drug sensitivities in O14 CRC organoid-stroma F14 CAF co-cultures. Organoid is transduced with Lucferase2-P2A-EGFP lentivirus, fibroblast with Renilla-dsRed lentivirus. Dual-Glo Luciferase assay is used to report viability data.
[2] = tested on: Colon cancer organoid; assay: Identification of compartment-specific drug sensitivities in O20 CRC organoid-stroma F20 CAF co-cultures. Organoid is transduced with Lucferase2-P2A-EGFP lentivirus, fibroblast with Renilla-dsRed lentivirus. Dual-Glo Luciferase assay is used to report viability data.
[3] = tested on: Colon cancer organoid; assay: Identification of compartment-specific drug sensitivities in O06 CRC organoid-stroma F06 CAF co-cultures. Organoid is transduced with Lucferase2-P2A-EGFP lentivirus, fibroblast with Renilla-dsRed lentivirus. Dual-Glo Luciferase assay is used to report viability data.
[4] = Transduced with Lucferase2-P2A-EGFP lentivirus
[5] = Transduced with Renilla-dsRed lentivirus

| Compound | Cell Viability [1, 4] | Cell Viability [1, 5] | Cell Viability [2, 4] | Cell Viability [2, 5] | Cell Viability [3, 4] | Cell Viability [3, 5] |
| --- | --- | --- | --- | --- | --- | --- |
| CN(C)C(=O)Cn1cc(-c2nc(C3(c4ccc(-c5cnc(N)nc5)cc4)CC3)no2)cn1 [BI 0153] | 127.983% | 104.715% | 119.435% | 91.9766% | 137.539% | 73.6279% |
| CCCCN(CCCC)C(=O)CN1C[C@@H](c2cc(OC)c3c(c2)OCO3)[C@H](C(=O)O)[C@H]1CC(C)(C)CCC [A-545] | 148.86% | 126.562% | 123.099% | 97.2502% | 84.2855% | 55.5874% |
| CN(C)C(=O)Cn1cc(-c2ccc(-c3nnc4ccccn34)cc2)cn1 | 99.1399% | 78.8551% | 167.784% | 52.6743% | 105.212% | 110.192% |
| CCc1cc2cc(NS(=O)(=O)c3ccc(C#N)cc3)ccc2n(CC)c1=O | 120.494% | 98.1699% | 196.577% | 99.0217% | 88.2132% | 102.933% |
| Clc1cccc(-c2nnnn2Cc2cccnc2)c1Cl | 96.2273% | 101.208% | 106.259% | 101.74% | 149.518% | 281.873% |
| Cc1nccc(COC(=O)N2C[C@@H]3[C@@H](CNC(=O)c4ccc5[nH]nnc5c4)[C@@H]3C2)n1 [BI 3017] | 148.595% | 113.357% | 107.028% | 99.2728% | 143.297% | 89.1244% |
| N#CC1(c2ccccn2)CCN(Cc2cc(C(=O)N3CCCC3)c(=O)n3ccccc23)CC1 [MSD-M1PAM-NC] | 93.1425% | 88.6945% | 103.159% | 109.338% | 85.4848% | 72.6928% |
| CN(C)CCCOc1ccc(-c2cc(NCCCn3cccn3)nc(S(C)(=O)=O)n2)cc1 | 139.487% | 89.5427% | 144.942% | 126.832% | 126.468% | 129.443% |
| COc1cc(OC)cc(-c2noc(N3CCN(C)C4(CCN(c5ccccc5)CC4)C3)n2)c1 | 135.567% | 106.85% | 90.427% | 110.491% | 67.7845% | 115.277% |
| O=C(O)c1ccc(-c2c[nH]c3ncc(-c4ccccc4)cc23)cc1C1CCCC1 [GSK-650394] | 112.026% | 70.7781% | 93.9419% | 129.576% | 92.5027% | 110.19% |
| CCOc1ccc(S(=O)(=O)Nc2ccc(Cl)cc2C#Cc2cnc(C(=O)[O-])cc2OC)c2ncccc12.[K+] | 103.028% | 89.48% | 110.493% | 117.362% | 117.764% | 113.31% |
| CNCc1ccccc1-c1csc([C@@H](C)Nc2nc(C)nc3cc(OC)c(OC)cc23)c1 [BAY-293] | 65.4303% | 97.5193% | 78.2703% | 145.24% | 41.2905% | 141.656% |
| OCCn1cc(-c2cnc3nnn(Cc4ccc5ncccc5c4)c3n2)cn1 [PF-04217903] | 55.9796% | 102.526% | 122.103% | 97.2338% | 88.0795% | 107.387% |
| COc1cc(Nc2ncc3c(n2)-c2ccc(Cl)cc2C(c2c(F)cccc2OC)=NC3)ccc1C(=O)O [ALISERTIB] | 16.3683% | 117.657% | 6.089% | 322.747% | 7.435% | 169.322% |
| Cn1cc(-c2ccc3occ(-c4ccccc4-c4ccccc4)c3n2)cn1 | 109.875% | 78.5125% | 88.7548% | 89.3741% | 43.2566% | 104.957% |
| O=C(O)CNC(=O)c1c(O)c2ccccc2n(Cc2ccccc2)c1=O | 107.659% | 95.196% | 96.6263% | 149.859% | 145.736% | 124.036% |

| Compound | Cell Viability [1, 4] | Cell Viability [1, 5] | Cell Viability [2, 4] | Cell Viability [2, 5] | Cell Viability [3, 4] | Cell Viability [3, 5] |
| --- | --- | --- | --- | --- | --- | --- |
| CC(C)S(=O)(=O)c1ccc2nccc(Nc3ccc4scnc4c3)c2c1 | 128.948% | 98.4032% | 147.82% | 98.2209% | 84.0973% | 95.5761% |
| O=C(NCc1ccccc1)c1ccc(S(=O)(=O)NCc2ccccc2)cc1 | 108.82% | 110.313% | 89.1581% | 96.8328% | 32.2843% | 131.443% |
| CN1CCN(C(=O)C(C)(C)c2ccc(C(=O)Nc3cn4cc(-c5cc(C(C)(C)C)cc(C(C)(C)C)c5)ccc4n3)cc2)CC1 [T3-CLK-N] | 123.449% | 101.908% | 83.0148% | 112.725% | 112.366% | 80.0588% |
| COc1cc(N(C)c2ccnc3ccc(C(F)(F)F)cc23)cc(OC)c1OC | 95.9474% | 95.4836% | 76.7382% | 110.267% | 62.3452% | 117.147% |
| O=C(Nc1cccnn1)N1CC(C/C=C/c2cncc(Oc3ccc(C(F)(F)F)cn3)n2)C1 | 132.074% | 108.992% | 97.9448% | 112.944% | 130.234% | 92.9489% |
| C[C@@H](NC(=O)Nc1cc2[nH]ncc2c(CO)n1)c1ccccc1 [ERKi] | 56.1161% | 76.4372% | 50.0756% | 135.339% | 82.7933% | 113.572% |
| COc1ccc(Oc2cc(NCCC(F)(F)F)c3ncc(-c4ccc(C(=O)NC5CC5)c(C)c4)n3n2)c(F)c1F [BAY-1217389] | 9.59% | 58.9964% | 10.0806% | 184.891% | 5.893% | 100.303% |
| CC(=O)C1=C(C)N(c2cccc(C(F)(F)F)c2)C(=O)N[C@@H]1c1ccc(C#N)nc1 [BAY-678] | 146.251% | 119.353% | 140.099% | 133.591% | 95.8481% | 136.382% |
| Cn1nc(C(F)(F)F)cc1-c1cnc(N2CCc3cc(S(=O)(=O)Nc4c(F)cc(Cl)cc4F)cc(N4CCCC4=O)c32)nc1 [TP-020] | 113.877% | 116.294% | 86.7802% | 95.2287% | 69.3758% | 110.898% |
| Cc1ncsc1-c1ccc(CNC(=O)[C@@H]2C[C@@H](O)CN2C(=O)[C@@H](NC(=O)CCCCNC(=O)c2ccc(-c3ccc(N4CCN(C)CC4)c(NC(=O)c4c[nH]c(=O)cc4C(F)(F)F)c3)cc2)C(C)(C)C)cc1 | 124.425% | 102.442% | 172.591% | 86.697% | 81.8894% | 85.2238% |
| CCOC(=O)CCNc1cc(N2CCc3ccccc3CC2)nc(-c2ccccn2)n1 | 102.142% | 98.2806% | 101.525% | 127.032% | 103.039% | 116.98% |
| Cc1cc(CN)cc(C)c1-c1ncn(C)c1-c1ccnc2cc(F)ccc12.Cl | 138.136% | 105.376% | 144.981% | 87.6481% | 105.057% | 123.721% |
| COc1ccccc1S(=O)(=O)Nc1ccc2c(c1)CN(C)C(=O)N2 | 127.49% | 84.3735% | 112.453% | 99.8859% | 75.1061% | 112.248% |
| CCC(F)(F)c1cc(N2CCC(S(C)(=O)=O)CC2)nc2sc(C(N)=O)c(N)c12 [BI-605906] | 95.5116% | 75.9837% | 180.529% | 81.0914% | 93.6384% | 92.3898% |
| Cn1c(C2(NC(=O)c3ccc4c(C5CCCC5)c(-c5ncc(Br)cn5)n(C)c4c3)CCC2)nc2ccc(/C=C/C(=O)O)cc21 [DELEOBUVIR] | 99.2157% | 60.0807% | 79.9036% | 130.288% | 117.892% | 131.89% |

From ChEMBL document CHEMBL5608141, “Identification of compartment-specific drug sensitivities in CRC organoid-stroma co-cultures” (2024)
